# Values of other authors in US10946075B1 (priority 2014, dated 2021).
# B1: papain (protein, UniProt P00784 134-345, looked up)
# Papain: IPEYVDWRQKGAVTPVKNQGSCGSCWAFSAVVTIEGIIKIRTGNLNEYSEQELLDCDRRSYGCNGGYPWSALQLVAQYGIHYRNTYPYEGVQRYCRSREKGPYAAKTDGVRQVQPYNEGALLYSIANQPVSVVLEAAGKDFQLYRGGIFVGPCGNKVDHAVAAVGYGPNYILIKNSWGTGWGENGYIRIKRGTGNSYGVCGLYTSSFYPVKN
# Legend:
# [1] = in vivo
# mice [2] = settings: mouse, in vivo, 16 mg/kg
# murine neuroblastoma = settings: mouse, in vivo
# humans = settings: human
# thyroid gland = settings: rat, in vivo
# mice [3] = settings: mouse, in vivo
# [4] = in vivo; remark: listed apart in the source
# dogs [5] = settings: dog, in vivo
# rat gamete = settings: in vivo
# dogs [6] = settings: dog, in vivo; remark: listed apart in the source
# rats = settings: rat, in vivo
molecule,measurement,setting,value
"NCCC[C@](N)(C(=O)O)C(F)F [DFMO, alpha-difluoromethylornithine]",radiation-induced cell death,cells,50-60 % of control
same,putrescine and spermidine levels,polyamine biosynthesis,nondetectable levels
same,spermine decrease,polyamine biosynthesis,50%
"C[S+](C)[O-] [DMSO, Dimethylsulfoxide]",induction of micronuclei by bystander effect cells,bystander effect cells,completely suppressed
Vitamin E,white cell count,[1],doubled
"O=C(O)CCCCC1CCSS1 (stereo not drawn) [Alpha lipoic acid, Alpha Lipoic Acid]",number of surviving animals,mice [2],doubled
same,survival rate,murine neuroblastoma,about 10%
"[I-].[K+] [KI, Potassium iodide]",approximate LD50 in humans,humans,~500 mg/kg
same,131I- excreted in urine,thyroid gland,30%
Cc1cc2nc3c(=O)[nH]c(=O)nc-3n(C[C@H](O)[C@H](O)[C@H](O)CO)c2cc1C [riboflavin],mortality and DNA damages,mice [3],higher mortality rates and more DNA damages
CC1=C(/C=C/C(C)=C/C=C/C(C)=C/C=C/C=C(C)/C=C/C=C(C)/C=C/C2=C(C)CCCC2(C)C)C(C)(C)CCC1 [Beta Carotene],survival,[4],80%
O=C([O-])CC(O)(CC(=O)[O-])C(=O)[O-].[Na+].[Na+].[Na+] [sodium citrate],treated dogs survived,dogs [5],100%
"O=C1O[C@H]([C@@H](O)CO)C(O)=C1O [vitamin C, Ascorbic Acid]",protection over control,hamster ovary cells,seven-fold
same,increase of gamete survival vs. controls (factor),rat gamete,2.2
same,reduction of mortality rate,dogs [6],50%
B1,survival,rats,50%
